Measurements: patent US20250313563A1, “GLYCOGEN SYNTHASE KINASE 3 INHIBITORS AND USES THEREOF” (The Broad Institute, Inc., priority 2022, published 2025)
Where two headings read alike, the source gives them in different places.

Columns and labels:
[1] = target: GSK3b (GST-full length GSK3b) (Homo sapiens (Human), UniProt P49841); assay: GSK3b TR-FRET kinase assay; type: biochemical
Summary of the method: (§1)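 Full-length GST-tagged human enzyme (1 nM) is exposed to test compound for 30 min before substrates are added. Phosphorylation of a primed biotinylated glycogen synthase peptide proceeds 100 min at room temperature at low ATP (4 μM α; 2 μM β) or high ATP (1 mM). Product is quantified by TR-FRET.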

[2] = target: GSK3α (GST-full length GSK3α) (Homo sapiens (Human), UniProt P49840); assay: GSK3α TR-FRET kinase assay; type: biochemical
Summary of the method: as §1

[3] = 1 nM GSK3b, 2 μM ATP, 30 minute preincubation, Table 16, read-out: GSK3-B TR-FRET BIOCHEMICAL (TR-FRET)
[4] = 1 nM GSK3α, 4 μM ATP, 30 minute preincubation, Table 16, read-out: GSK3-A TR-FRET BIOCHEMICAL (TR-FRET)
[5] = 1 nM GSK3b, 2 μM ATP, 30 minute preincubation, geometric mean, read-out: GSK3-B TR-FRET BIOCHEMICAL (TR-FRET), GMean, IC50
[6] = 1 nM GSK3α, 4 μM ATP, 30 minute preincubation, geometric mean, read-out: GSK3-A TR-FRET BIOCHEMICAL (TR-FRET), GMean, IC50
[7] = read-out: GSK3-B (TR-FRET 1 mM ATP), GMean, IC50, 1 mM ATP, geometric mean
[8] = read-out: GSK3-A (TR-FRET 1 mM ATP), GMean, IC50, 1 mM ATP, geometric mean
[9] = 1 nM GSK3b, 2 μM ATP, 30 minute preincubation, read-out: GSK3-B TR-FRET BIOCHEMICAL (TR-FRET), IC50
[10] = 1 nM GSK3α, 4 μM ATP, 30 minute preincubation, read-out: GSK3-A TR-FRET BIOCHEMICAL (TR-FRET), IC50
[11] = GSK3-B (TR-FRET 1 mM ATP), GMean, IC50, 1 mM ATP, geometric mean
[12] = GSK3-A (TR-FRET 1 mM ATP), GMean, IC50, 1 mM ATP, geometric mean

GSK3b (GST-full length GSK3b), sequence (P49841 whole entry): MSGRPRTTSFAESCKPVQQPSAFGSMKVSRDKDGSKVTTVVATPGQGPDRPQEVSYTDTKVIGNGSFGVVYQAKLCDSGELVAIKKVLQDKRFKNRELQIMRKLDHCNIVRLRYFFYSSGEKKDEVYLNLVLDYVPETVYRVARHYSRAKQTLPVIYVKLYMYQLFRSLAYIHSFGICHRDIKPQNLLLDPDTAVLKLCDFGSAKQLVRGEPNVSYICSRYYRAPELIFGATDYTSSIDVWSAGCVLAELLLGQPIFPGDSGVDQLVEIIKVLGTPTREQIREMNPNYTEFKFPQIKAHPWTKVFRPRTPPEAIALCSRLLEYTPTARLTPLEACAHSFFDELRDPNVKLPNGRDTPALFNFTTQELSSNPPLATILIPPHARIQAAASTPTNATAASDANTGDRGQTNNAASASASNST
GSK3α (GST-full length GSK3α), sequence (P49840 whole entry): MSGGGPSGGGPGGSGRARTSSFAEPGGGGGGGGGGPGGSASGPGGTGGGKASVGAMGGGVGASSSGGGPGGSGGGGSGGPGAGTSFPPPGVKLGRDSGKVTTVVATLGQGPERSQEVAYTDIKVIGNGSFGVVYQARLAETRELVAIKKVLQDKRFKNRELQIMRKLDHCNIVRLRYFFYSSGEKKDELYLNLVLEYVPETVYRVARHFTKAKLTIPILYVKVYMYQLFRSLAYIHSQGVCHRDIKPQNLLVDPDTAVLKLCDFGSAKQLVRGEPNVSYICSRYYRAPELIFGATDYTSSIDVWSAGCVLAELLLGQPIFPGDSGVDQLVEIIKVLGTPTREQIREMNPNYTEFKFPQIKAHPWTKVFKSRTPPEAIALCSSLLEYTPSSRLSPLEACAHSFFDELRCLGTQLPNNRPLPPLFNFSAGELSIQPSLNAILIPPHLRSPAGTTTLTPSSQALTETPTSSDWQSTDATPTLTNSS

Row | IC50 [1, 3] [nM] | IC50 [2, 4] [nM] | SMILES | other results
1 | ≤ 100 | ≤ 100 | CCC1(c2cccc(-c3cnnn3C(C)C)c2)C2=C(CC(C)(C)CC2=O)Nc2n[nH]cc21 (stereo not drawn) [Compound 947397] | 
2 | ≤ 100 | ≤ 100 | CCC1(c2cccc(-c3cnnn3C)c2)C2=C(CC(C)(C)CC2=O)Nc2n[nH]cc21 (stereo not drawn) [Compound 947398] | 
3 |  |  | CCC1(c2cccc(-c3ccnc(C)c3C)c2)C2=C(CC(C)(C)NC2=O)Nc2n[nH]c(C)c21 (stereo not drawn) [Compound 947399] | IC50 [1, 5]: 1000 to 5000 nM; IC50 [2, 6]: 100 to 1000 nM
4 | ≤ 100 | ≤ 100 | CCC1(c2cccc(Oc3ncccn3)c2)C2=C(CC(C)(C)CC2=O)Nc2n[nH]cc21 (stereo not drawn) [Compound 947400] | 
5 |  |  | CCC1(c2cccc(-c3ccnc(C)c3F)c2)C2=C(CC(C)(C)NC2=O)Nc2n[nH]c(C)c21 (stereo not drawn) [Compound 947402] | IC50 [1, 5]: 100 to 1000 nM; IC50 [2, 6]: ≤ 100 nM
6 |  |  | CCC1(c2cccc(-c3cnn(C)c3C)c2)C2=C(CC(C)(C)NC2=O)Nc2n[nH]c(C(F)(F)F)c21 (stereo not drawn) [Compound 947403] | IC50 [1, 5]: ≤ 100 nM; IC50 [1, 7]: 100 to 1000 nM; IC50 [2, 6]: ≤ 100 nM; IC50 [2, 8]: ≤ 100 nM
7 |  |  | CCC1(c2cccc(-c3ccncc3C)c2)C2=C(CC(C)(C)NC2=O)Nc2n[nH]c(C(F)(F)F)c21 (stereo not drawn) [Compound 947404] | IC50 [1, 5]: ≤ 100 nM; IC50 [1, 7]: 100 to 1000 nM; IC50 [2, 6]: ≤ 100 nM; IC50 [2, 8]: ≤ 100 nM
8 |  |  | CCC1(c2cccc(-c3cnn(C)c3)c2)C2=C(CC(C)(C)NC2=O)Nc2n[nH]c(C(F)(F)F)c21 (stereo not drawn) [Compound 947405] | IC50 [1, 5]: ≤ 100 nM; IC50 [1, 7]: 100 to 1000 nM; IC50 [2, 6]: ≤ 100 nM; IC50 [2, 8]: ≤ 100 nM
9 | 100 to 1000 | ≤ 100 | CC[C@]1(c2cccc(-c3ccnc(C)c3)c2)C2=C(C[C@]3(CCOC3)NC2=O)Nc2n[nH]cc21 [Compound 947406] | IC50 [1, 7]: > 5000 nM; IC50 [2, 8]: 100 to 1000 nM
10 | 1000 to 5000 | ≤ 100 | CCC1(c2cccc(-c3ccnc(C)c3)c2)C2=C(CC3(CCOC3)CC2=O)Nc2n[nH]cc21 (stereo not drawn) [Compound 947407] | 
11 |  |  | CC[C@]1(c2cccc(-c3c(C)nn(C)c3C)c2)C2=C(CC(C)(C)NC2=O)Nc2n[nH]cc21 [Compound 947408] | IC50 [1, 5]: ≤ 100 nM; IC50 [1, 7]: 1000 to 5000 nM; IC50 [2, 6]: ≤ 100 nM; IC50 [2, 8]: 100 to 1000 nM
12 |  |  | CC[C@]1(c2cccc(-c3ccncc3C)c2)C2=C(CC(C)(C)NC2=O)Nc2n[nH]c(C)c21 [Compound 947409] | IC50 [1, 5]: > 5000 nM; IC50 [2, 6]: 1000 to 5000 nM
13 |  |  | CC[C@]1(c2cccc(-c3cnn4c3CCCC4)c2)C2=C(CC(C)(C)NC2=O)Nc2n[nH]cc21 [Compound 947410] | IC50 [1, 5]: 100 to 1000 nM; IC50 [1, 7]: > 5000 nM; IC50 [2, 6]: ≤ 100 nM; IC50 [2, 8]: 100 to 1000 nM
14 | > 5000 | 1000 to 5000 | CCC1(c2cccc(-c3ccnc(C)c3)c2)C2=C(CC3(CCOC3)CC2=O)Nc2n[nH]cc21 (stereo not drawn) [Compound 947412] | 
15 |  |  | CC[C@@]1(c2cccc(-c3c(C)nn(C)c3C)c2)C2=C(CC(C)(C)NC2=O)Nc2n[nH]cc21 [Compound 947413] | IC50 [1, 5]: > 5000 nM; IC50 [2, 6]: 1000 to 5000 nM
16 |  |  | CC[C@@]1(c2cccc(-c3ccncc3C)c2)C2=C(CC(C)(C)NC2=O)Nc2n[nH]c(C)c21 [Compound 947414] | IC50 [1, 5]: ≤ 100 nM; IC50 [1, 7]: 1000 to 5000 nM; IC50 [2, 6]: ≤ 100 nM; IC50 [2, 8]: 100 to 1000 nM
17 |  |  | CCC1(c2cccc(-c3cnn4c3CCCC4)c2)C2=C(CC(C)(C)NC2=O)Nc2n[nH]cc21 (stereo not drawn) [Compound 947415] | IC50 [1, 5]: > 5000 nM; IC50 [2, 6]: 1000 to 5000 nM
18 |  |  | CCC1(c2cccc(C(F)(F)F)c2)C2=C(CCN(c3cccnc3)C2=O)Nc2n[nH]cc21 (stereo not drawn) [Compound 947433] | IC50 [1, 5]: > 5000 nM; IC50 [2, 6]: > 5000 nM
19 | 100 to 1000 | ≤ 100 | Cc1ccc(S(=O)(=O)N2CCC3(CC2)C2=C(CC(C)(C)CC2=O)Nc2n[nH]cc23)cc1 [Compound 947459] | 
20 | ≤ 100 | ≤ 100 | Cc1c(S(=O)(=O)N2CCC3(CC2)C2=C(CC(C)(C)CC2=O)Nc2n[nH]cc23)cnn1C [Compound 947460] | 
21 |  |  | CC1(C)CC(=O)C2=C(C1)Nc1n[nH]cc1C21CCN(S(=O)(=O)c2ccn(-c3ccccc3)n2)CC1 [Compound 947461] | IC50 [1, 9]: ≤ 100 nM; IC50 [2, 10]: ≤ 100 nM
22 | ≤ 100 | ≤ 100 | CC1(C)CC(=O)C2=C(C1)Nc1n[nH]cc1C21CCN(S(=O)(=O)c2cnc3ccccc3c2)CC1 [Compound 947462] | IC50 [1, 11]: 1000 to 5000 nM; IC50 [2, 12]: 100 to 1000 nM
23 | 100 to 1000 | ≤ 100 | CC1(C)CC(=O)C2=C(C1)Nc1n[nH]cc1C21CCN(S(=O)(=O)c2cnccc2C(F)(F)F)CC1 [Compound 947463] | 
24 |  |  | CC1(C)CC(=O)C2=C(C1)Nc1n[nH]cc1C21CCN(S(=O)(=O)c2cccc3c2OCCO3)CC1 [Compound 947464] | IC50 [1, 9]: ≤ 100 nM; IC50 [1, 11]: 100 to 1000 nM; IC50 [2, 10]: ≤ 100 nM; IC50 [2, 12]: ≤ 100 nM

Row | IC50 [1, 3] [nM] | IC50 [2, 4] [nM] | SMILES | other results
25 | ≤ 100 | ≤ 100 | COc1cncc(S(=O)(=O)N2CCC3(CC2)C2=C(CC(C)(C)CC2=O)Nc2n[nH]cc23)c1 [Compound 947465] | 
26 | 100 to 1000 | ≤ 100 | CC1(C)CC(=O)C2=C(C1)Nc1n[nH]cc1C21CCN(S(=O)(=O)c2cnnn2-c2ccccc2)CC1 [Compound 947466] | 
27 | 100 to 1000 | ≤ 100 | CC1(C)CC(=O)C2=C(C1)Nc1n[nH]cc1C21CCN(S(=O)(=O)c2cnc3n2CCC3)CC1 [Compound 947467] | 
28 | ≤ 100 | ≤ 100 | Cc1ccc(S(=O)(=O)N2CCC3(CC2)C2=C(CC(C)(C)CC2=O)Nc2n[nH]cc23)c(C)c1 [Compound 947468] | 
29 | ≤ 100 | ≤ 100 | CC1(C)CC(=O)C2=C(C1)Nc1n[nH]cc1C21CCN(S(=O)(=O)c2cccc3ncccc23)CC1 [Compound 947469] | 
30 | ≤ 100 | ≤ 100 | CC1(C)CC(=O)C2=C(C1)Nc1n[nH]cc1C21CCN(S(=O)(=O)c2cccc3c2CCCC3)CC1 [Compound 947470] | 
31 | 100 to 1000 | ≤ 100 | Cc1ccc(C)c(S(=O)(=O)N2CCC3(CC2)C2=C(CC(C)(C)CC2=O)Nc2n[nH]cc23)c1 [Compound 947471] | 
32 | 100 to 1000 | ≤ 100 | CC1(C)CC(=O)C2=C(C1)Nc1n[nH]cc1C21CCN(S(=O)(=O)c2cn3c(n2)CCCC3)CC1 [Compound 947472] | 
33 | 100 to 1000 | 100 to 1000 | CC(C)c1ccccc1S(=O)(=O)N1CCC2(CC1)C1=C(CC(C)(C)CC1=O)Nc1n[nH]cc12 [Compound 947473] | 
34 | ≤ 100 | ≤ 100 | CC1(C)CC(=O)C2=C(C1)Nc1n[nH]cc1C21CCN(S(=O)(=O)c2cnn3c2CCCC3)CC1 [Compound 947474] | 
35 | ≤ 100 | ≤ 100 | Cc1cc(S(=O)(=O)N2CCC3(CC2)C2=C(CC(C)(C)CC2=O)Nc2n[nH]cc23)ccc1Cl [Compound 947475] | 
36 |  |  | CC1(C)CC(=O)C2=C(C1)Nc1n[nH]cc1C21CCN(S(=O)(=O)c2ccc3ccccc3n2)CC1 [Compound 947476] | IC50 [1, 9]: ≤ 100 nM; IC50 [2, 10]: ≤ 100 nM
37 | ≤ 100 | ≤ 100 | COCCn1cc(S(=O)(=O)N2CCC3(CC2)C2=C(CC(C)(C)CC2=O)Nc2n[nH]cc23)cn1 [Compound 947477] | 
38 | ≤ 100 | ≤ 100 | COc1ccc(S(=O)(=O)N2CCC3(CC2)C2=C(CC(C)(C)CC2=O)Nc2n[nH]cc23)cc1F [Compound 947478] | 
39 | ≤ 100 | ≤ 100 | CC1(C)CC(=O)C2=C(C1)Nc1n[nH]cc1C21CCN(S(=O)(=O)c2ccccc2C#N)CC1 [Compound 947479] | 
40 | ≤ 100 | ≤ 100 | CC1(C)CC(=O)C2=C(C1)Nc1n[nH]cc1C21CCN(S(=O)(=O)c2cnc3n2CCCC3)CC1 [Compound 947480] | 
41 | ≤ 100 | ≤ 100 | Cc1cc(S(=O)(=O)N2CCC3(CC2)C2=C(CC(C)(C)CC2=O)Nc2n[nH]cc23)ccn1 [Compound 947481] | 
42 | ≤ 100 | ≤ 100 | Cc1ccc(S(=O)(=O)N2CCC3(CC2)C2=C(CC(C)(C)CC2=O)Nc2n[nH]cc23)cn1 [Compound 947482] | 
43 | ≤ 100 | ≤ 100 | CC1(C)CC(=O)C2=C(C1)Nc1n[nH]cc1C21CCN(S(=O)(=O)c2cnn3c2OCCC3)CC1 [Compound 947483] | 
44 |  |  | CC1(C)CC(=O)C2=C(C1)Nc1n[nH]cc1C21CCN(S(=O)(=O)c2c(F)cc(F)cc2F)CC1 [Compound 947484] | IC50 [1, 9]: ≤ 100 nM; IC50 [2, 10]: ≤ 100 nM
45 |  |  | CC1(C)CC(=O)C2=C(C1)Nc1n[nH]cc1C21COC2(CN(C(=O)C(F)F)C2)C1 (stereo not drawn) [Compound 947485] | IC50 [1, 9]: ≤ 100 nM; IC50 [2, 10]: ≤ 100 nM
46 |  |  | CC1(C)CC(=O)C2=C(C1)Nc1n[nH]cc1C21COC2(CN(C(=O)C3CCC(F)C3)C2)C1 (stereo not drawn) [Compound 947486] | IC50 [1, 9]: ≤ 100 nM; IC50 [2, 10]: ≤ 100 nM
47 |  |  | CC1(C)CC(=O)C2=C(C1)Nc1n[nH]cc1C21COC2(CN(C(=O)C3(F)CC3)C2)C1 (stereo not drawn) [Compound 947487] | IC50 [1, 9]: ≤ 100 nM; IC50 [2, 10]: ≤ 100 nM
48 | ≤ 100 | ≤ 100 | CCC1(c2cccc(-c3c(C)cnn3C)c2)C2=C(CC(C)(C)CC2=O)Nc2n[nH]cc21 (stereo not drawn) [Compound 947491] | 
